2 compounds from patent publication US6576628B1, “3-aryl-succinamido-hydroxamic acids, methods for producing said acids and medicaments containing the same” (Roche Diagnostics GmbH, priority 1997, dated 2003) can be followed below.

What all share (type): biochemical
Assay [1] has as its target T1, catalytic domain (Met80-Gly242) of the human neutrophilic collagenase (MMP8) (Homo sapiens, UniProt P22894).
T1 construct: catalytic domain (Met80-Gly242) of the human neutrophilic collagenase (MMP8); made in house
Nature of the assay: MMP8 (HNC) catalytic domain fluorogenic substrate inhibition assay. The conditions noted are these: 8 nM catalytic domain, 10 μM DNP-heptapeptide substrate, 25° C., pH 7.6.
Procedure: 50 mM Tris/HCl pH 7.6 (Tris=Tris-(hydroxymethyl)-aminomethane)
100 mM NaCl/10 mM CaCl2/5% MeOH (if required)
8 nM catalytic domain (Met80-Gly242) of the human neutrophilic collagenase (MMP8)

Assay [2] addresses T2, MMP2 (Homo sapiens, UniProt P08253).
T2 sequence (P08253 110-660): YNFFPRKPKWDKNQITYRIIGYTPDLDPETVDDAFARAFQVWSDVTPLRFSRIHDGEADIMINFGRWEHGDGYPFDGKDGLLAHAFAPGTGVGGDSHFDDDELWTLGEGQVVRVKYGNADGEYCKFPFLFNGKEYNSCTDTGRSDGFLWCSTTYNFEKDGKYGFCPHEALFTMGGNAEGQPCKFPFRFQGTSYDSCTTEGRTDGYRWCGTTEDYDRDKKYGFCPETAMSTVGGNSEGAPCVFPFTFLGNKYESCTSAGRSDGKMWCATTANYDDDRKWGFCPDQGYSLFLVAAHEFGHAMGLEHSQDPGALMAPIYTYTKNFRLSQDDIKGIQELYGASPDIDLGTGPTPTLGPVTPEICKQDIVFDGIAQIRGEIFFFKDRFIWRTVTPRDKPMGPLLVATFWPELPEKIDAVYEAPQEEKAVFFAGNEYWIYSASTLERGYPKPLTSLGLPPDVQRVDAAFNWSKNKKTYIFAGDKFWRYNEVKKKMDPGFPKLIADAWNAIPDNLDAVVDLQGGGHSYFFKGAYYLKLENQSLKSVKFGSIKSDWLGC
As to the kind of experiment: MMP2 inhibition assay in analogy to HNC (MMP8) assay. The settings on record: activated MMP2; other concentrations than MMP8 assay.

Assay [3] concerns the target T3, MMP1 (Homo sapiens, UniProt P03956).
T3 sequence (P03956 100-469): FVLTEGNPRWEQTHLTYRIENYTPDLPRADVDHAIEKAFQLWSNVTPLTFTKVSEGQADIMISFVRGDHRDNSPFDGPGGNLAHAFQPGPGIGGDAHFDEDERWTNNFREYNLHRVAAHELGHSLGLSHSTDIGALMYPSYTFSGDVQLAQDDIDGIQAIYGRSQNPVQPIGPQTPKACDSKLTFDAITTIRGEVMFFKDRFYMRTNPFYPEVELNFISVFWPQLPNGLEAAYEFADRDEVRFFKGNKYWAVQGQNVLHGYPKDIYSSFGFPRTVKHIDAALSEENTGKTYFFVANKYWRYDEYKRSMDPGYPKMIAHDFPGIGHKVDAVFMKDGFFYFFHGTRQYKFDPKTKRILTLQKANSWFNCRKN
Nature of the assay: MMP1 inhibition assay in analogy to HNC (MMP8) assay. The settings on record: for inhibition at 0.2 µM: inhibitor at 200 nM, activated MMP1. As for the experimental part: In order to determine the inhibitory potential of compounds of the general formula I on MMPs such as HNC, the catalytic domain is incubated (isolation and purification see Schnierer, S., Kleine, T., Gote, T., Hillemann, A., Knäuper, V., Tschesche, H., Biochem. Biophys. Res. Commun. (1993), 191, 319-326). Subsequently the initial reaction rate of a standard substrate is measured as described in Grams F. et al., FEBS 335 (1993) 76-80). The results are evaluated in the usual manner (see e.g. Dixon, M., Biochem. J. (1953) 55, 170-202).
The synthetic collagenase substrate is a heptapeptide coupled C-terminally with dinitrophenol (DNP). This DNP residue quenches the fluorescence of the Trp of the heptapeptide. After cleavage of a tripeptide containing the DNP residue, the measurable fluorescence increases.
A solution of enzyme and inhibitor is prepared in assay buffer at 25° C. The reaction is started by addition of the substrate to the solution. The cleavage of the fluorogenic substrate is measured by fluorescence spectroscopy (excitation and emission wavelength at 280 and 350 nm respectively). The IC50 value is determined for an inhibitor concentration at which the reaction rate is halved.
An activation is additionally necessary for MMP2 and MMP1.

Broadly, the IC50 is the concentration that inhibits the measured activity by half. A higher IC50 goes with weaker potency. A word on the inhibition: it is how much of the control response was suppressed. A low value points to a response near the control.

T1 sequence (P22894 100-262): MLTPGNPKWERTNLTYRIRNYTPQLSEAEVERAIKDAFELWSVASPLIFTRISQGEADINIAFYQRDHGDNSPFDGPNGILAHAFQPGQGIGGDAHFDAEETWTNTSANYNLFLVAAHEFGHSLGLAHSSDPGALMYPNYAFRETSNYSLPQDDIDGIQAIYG

For `CNC(=O)[C@@H](NC(=O)C(c1ccc(-c2ccccc2)cc1)C(O)C(=O)NO)C(C)(C)C` (mixture of isomers) [example 1.5, 2-Biphenyl-4-yl-N1-((1S)-2,2-dimethyl-1-methyl-carbamoyl-propyl)-3,N4-dihydroxy-succinamide], the IC50 came to 18 nM in assay [1] and 23 nM in assay [2]. Moreover, the “inhibition of MMP1 compared with Marimastat (in words)” value in assay [3] was “substantially poorer than by Marimastat”. In assay [3] (compared with Marimastat, MMP2/MMP8 versus MMP1), the “selectivity relative to MMP1 (in words)” value was “clear selectivity advantage relative to MMP1”. The compound further showed an inhibition at 0.2 µM in assay [3] of 20%.

In assay [3], `CNC(=O)[C@@H](NC(=O)[C@H](CC(C)C)[C@H](O)C(=O)NO)C(C)(C)C` [Marimastat, N2-[3S-hydroxy-4-(N-hydroxyamino)-2R-isobutyl-succinyl)-L-tert-leucine-N1-methylamide, reference compound] gave an inhibition at 0.2 µM of 100%.
